Laboratory results: publication PMC7719162, “Positioning of an unprecedented spiro[5.5]undeca ring system into kinase inhibitor space” (Scientific Reports, 2020)
Read-outs that look alike come from different tables or passages of the source.

Tests used:
DAPK1 = molecular target: T1, DAPK1 (Homo sapiens, UniProt P53355); settings: cited from earlier work
T1 construct: purchased Reaction Biology Corp

ROCK1 = molecular target: T2, ROCK1 (Homo sapiens, UniProt Q13464); settings: cited from earlier work
T2 construct: purchased Reaction Biology Corp

AMPK(A1/B2/G1) [1] = molecular target: T3, AMPK(A1/B2/G1) (Homo sapiens, UniProt Q13131); assay: Kinase panel assay (radiolabelled); type: biochemical; settings: 30 μM compound, ATP 10 μM; duplicates Data 1/Data 2
T3 construct: purchased Reaction Biology Corp

AMPK(A1/B2/G1) [2] = molecular target: T4, AMPK(A1/B2/G1) (Homo sapiens, UniProt O43741+P54619+Q13131); assay: Kinase panel assay (radiolabelled); type: biochemical; settings: 30 μM compound, ATP 10 μM; duplicates Data 1/Data 2; read-out: % Enzyme Activity (relative to DMSO controls)
T4 construct: purchased Reaction Biology Corp

TNF-α = assay: Secreted TNF-α ELISA in LPS-induced BV-2 cells; type: cell-based, murine
Experimental: To evaluate the secreted level of Prostaglandin E2 (PGE2), Tumor necrosis factor (TNF-α), Interleukin (IL-6), Interleukin (IL-1β), BV2 cells were seeded in a 6 well plate at the density of 1.5 × 10^6 cells/well in DMEM and incubated for 24 h. Seeded cells sere pretreated and, activated with LPS for next 24 h. conditioned medium from treated cells were collected and stored at -80 degree for longer period of time. The amount of TNF-α, IL-1β, PGE2,and IL-6 were evaluated using the competitive enzyme immunoassay kit. PGE2 kit were obtained from (Cayman Chemical, Ann Arbor, MI, USA) and TNF-α, IL-1β, and IL-6 were measured using ELISA development kits (R&D Systems, Minneapolis, MN, USA). All the protocol was exactly followed as written in the manual.

AMPK(A2/B1/G1) [3] = molecular target: T5, AMPK(A2/B1/G1) (Homo sapiens, UniProt P54646); assay: Kinase panel assay (radiolabelled); type: biochemical; settings: 30 μM compound, ATP 10 μM; duplicates Data 1/Data 2
T5 construct: purchased Reaction Biology Corp

AMPK(A2/B1/G1) [4] = molecular target: T6, AMPK(A2/B1/G1) (Homo sapiens, UniProt P54619+P54646+Q9Y478); assay: Kinase panel assay (radiolabelled); type: biochemical; settings: 30 μM compound, ATP 10 μM; duplicates Data 1/Data 2; read-out: % Enzyme Activity (relative to DMSO controls)
T6 construct: purchased Reaction Biology Corp

RIPK5 = molecular target: T7, RIPK5 (Homo sapiens, UniProt Q6XUX3); assay: Kinase panel assay (radiolabelled); type: biochemical; settings: ATP 10 μM
T7 construct: purchased Reaction Biology Corp
T7 sequence (Q6XUX3 1-929): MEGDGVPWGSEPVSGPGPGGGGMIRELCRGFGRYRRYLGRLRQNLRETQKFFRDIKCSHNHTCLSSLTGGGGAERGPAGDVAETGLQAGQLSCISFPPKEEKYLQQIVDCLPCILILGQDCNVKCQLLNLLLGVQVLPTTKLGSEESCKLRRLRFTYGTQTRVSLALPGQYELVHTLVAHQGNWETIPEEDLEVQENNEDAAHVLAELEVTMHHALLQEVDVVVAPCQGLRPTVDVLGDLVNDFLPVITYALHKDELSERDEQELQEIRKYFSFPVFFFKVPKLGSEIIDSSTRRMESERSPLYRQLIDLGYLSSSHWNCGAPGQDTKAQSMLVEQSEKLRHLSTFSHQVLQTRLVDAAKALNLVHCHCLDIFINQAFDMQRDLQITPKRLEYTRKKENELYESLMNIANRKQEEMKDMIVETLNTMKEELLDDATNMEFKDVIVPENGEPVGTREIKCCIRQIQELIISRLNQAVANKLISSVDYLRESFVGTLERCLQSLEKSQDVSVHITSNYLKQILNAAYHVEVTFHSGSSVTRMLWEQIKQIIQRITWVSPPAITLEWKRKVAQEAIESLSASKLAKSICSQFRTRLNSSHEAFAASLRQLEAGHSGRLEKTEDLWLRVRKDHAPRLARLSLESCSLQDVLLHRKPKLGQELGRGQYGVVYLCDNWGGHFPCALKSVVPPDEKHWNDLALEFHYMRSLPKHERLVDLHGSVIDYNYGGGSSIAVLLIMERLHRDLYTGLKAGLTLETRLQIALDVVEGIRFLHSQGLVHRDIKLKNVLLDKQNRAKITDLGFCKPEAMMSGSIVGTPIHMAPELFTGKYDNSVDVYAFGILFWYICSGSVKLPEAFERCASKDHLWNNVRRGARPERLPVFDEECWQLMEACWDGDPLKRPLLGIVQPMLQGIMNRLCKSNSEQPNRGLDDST

DAPK2 = molecular target: T8, DAPK2 (Homo sapiens, UniProt Q9UIK4); assay: Kinase panel assay (radiolabelled); type: biochemical; settings: ATP 10 μM
T8 construct: purchased Reaction Biology Corp

PDK1/PDHK1 = molecular target: T9, PDK1/PDHK1 (Homo sapiens, UniProt Q15118); assay: Kinase panel assay (radiolabelled); type: biochemical; settings: 30 μM compound, ATP 10 μM, duplicates Data 1/Data 2
T9 construct: purchased Reaction Biology Corp
Experimental: (§1) Every inhibitory activity of tested compounds was measured by radiolabelled method of Reaction Biology Corp). The radiolabelled ATP ([γ-^33P] ATP) replaced a substrate with ^33P-phosphorylated substrate so that the activity of a kinase was measured from the radiolabelled phosphorylated substrate. Kinase panel assay was tested at 30 μM testing compounds with an ATP concentration of 10 μM and a substrate concentration of 10 μM. % Residual activity against GSK3β was measured at 10 uM compounds 1 and 2. […] Curve fits of control compounds were performed where the enzyme activities at the highest concentration of compounds were less than 65%. The concentration of DMSO was controlled and raw data, % kinase activity was calculated relative to DMSO controls.

PDK4/PDHK4 = molecular target: T10, PDK4/PDHK4 (Homo sapiens, UniProt Q16654); assay: Kinase panel assay (radiolabelled); type: biochemical; settings: 30 μM compound, ATP 10 μM, duplicates Data 1/Data 2
T10 construct: purchased Reaction Biology Corp
Experimental: as §1

TRPM7/CHAK1 = molecular target: T11, TRPM7/CHAK1 (Homo sapiens, UniProt Q96QT4); assay: Kinase panel assay (radiolabelled); type: biochemical; settings: 30 μM compound, ATP 10 μM, duplicates Data 1/Data 2
T11 construct: purchased Reaction Biology Corp
Experimental: as §1

PDK2/PDHK2 = molecular target: T12, PDK2/PDHK2 (Homo sapiens, UniProt Q15119); assay: Kinase panel assay (radiolabelled); type: biochemical; settings: 30 μM compound, ATP 10 μM, duplicates Data 1/Data 2
T12 construct: purchased Reaction Biology Corp
Experimental: as §1

EIF2AK1 = molecular target: T13, EIF2AK1 (Homo sapiens, UniProt Q9BQI3); assay: Kinase panel assay (radiolabelled); type: biochemical; settings: 30 μM compound, ATP 10 μM, duplicates Data 1/Data 2
T13 construct: purchased Reaction Biology Corp
Experimental: as §1

PDK3/PDHK3 = molecular target: T14, PDK3/PDHK3 (Homo sapiens, UniProt Q15120); assay: Kinase panel assay (radiolabelled); type: biochemical; settings: 30 μM compound, ATP 10 μM, duplicates Data 1/Data 2
T14 construct: purchased Reaction Biology Corp
Experimental: as §1

[5] = 30 μM compound, duplicates Data 1/Data 2
[6] = 30 μM compound, duplicates Data 1/Data 2, read-out: % Enzyme Activity (relative to DMSO controls)
[7] = 30 μM, average ± SD, read-out: % Residual Activity at 30 μM
[8] = read-out: % Enzyme Activity (relative to DMSO controls)

T8 sequence (Q9UIK4 whole entry): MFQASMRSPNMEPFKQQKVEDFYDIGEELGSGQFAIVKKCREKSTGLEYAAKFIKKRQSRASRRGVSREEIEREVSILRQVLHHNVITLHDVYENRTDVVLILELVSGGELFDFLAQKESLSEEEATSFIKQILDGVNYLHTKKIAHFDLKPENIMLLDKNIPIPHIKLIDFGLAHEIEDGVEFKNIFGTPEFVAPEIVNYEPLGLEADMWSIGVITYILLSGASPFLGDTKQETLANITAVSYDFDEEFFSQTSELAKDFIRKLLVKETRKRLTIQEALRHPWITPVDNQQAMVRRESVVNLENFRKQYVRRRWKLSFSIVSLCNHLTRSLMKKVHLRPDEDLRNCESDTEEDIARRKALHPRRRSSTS
T10 sequence (Q16654 whole entry): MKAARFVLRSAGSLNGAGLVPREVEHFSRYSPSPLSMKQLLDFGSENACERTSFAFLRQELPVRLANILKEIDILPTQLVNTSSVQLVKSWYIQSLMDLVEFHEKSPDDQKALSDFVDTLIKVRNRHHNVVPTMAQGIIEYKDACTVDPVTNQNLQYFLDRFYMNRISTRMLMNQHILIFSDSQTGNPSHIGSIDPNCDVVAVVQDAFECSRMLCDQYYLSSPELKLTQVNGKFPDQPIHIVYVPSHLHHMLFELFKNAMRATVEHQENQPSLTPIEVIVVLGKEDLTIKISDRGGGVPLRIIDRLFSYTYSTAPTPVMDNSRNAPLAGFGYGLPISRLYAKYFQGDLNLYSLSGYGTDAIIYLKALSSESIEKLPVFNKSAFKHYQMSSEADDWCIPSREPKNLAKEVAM
T14 sequence (Q15120 whole entry): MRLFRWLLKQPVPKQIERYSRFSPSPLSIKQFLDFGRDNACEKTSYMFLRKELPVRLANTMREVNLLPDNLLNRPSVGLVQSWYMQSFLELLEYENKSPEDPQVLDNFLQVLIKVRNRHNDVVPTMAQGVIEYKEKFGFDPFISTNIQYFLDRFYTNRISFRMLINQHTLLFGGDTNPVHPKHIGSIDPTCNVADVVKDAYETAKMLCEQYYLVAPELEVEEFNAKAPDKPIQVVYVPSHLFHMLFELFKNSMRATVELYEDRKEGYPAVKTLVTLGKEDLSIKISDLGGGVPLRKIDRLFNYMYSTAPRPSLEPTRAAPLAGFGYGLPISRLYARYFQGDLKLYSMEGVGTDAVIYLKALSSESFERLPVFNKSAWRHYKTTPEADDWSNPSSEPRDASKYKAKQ
T13 sequence (Q9BQI3 whole entry): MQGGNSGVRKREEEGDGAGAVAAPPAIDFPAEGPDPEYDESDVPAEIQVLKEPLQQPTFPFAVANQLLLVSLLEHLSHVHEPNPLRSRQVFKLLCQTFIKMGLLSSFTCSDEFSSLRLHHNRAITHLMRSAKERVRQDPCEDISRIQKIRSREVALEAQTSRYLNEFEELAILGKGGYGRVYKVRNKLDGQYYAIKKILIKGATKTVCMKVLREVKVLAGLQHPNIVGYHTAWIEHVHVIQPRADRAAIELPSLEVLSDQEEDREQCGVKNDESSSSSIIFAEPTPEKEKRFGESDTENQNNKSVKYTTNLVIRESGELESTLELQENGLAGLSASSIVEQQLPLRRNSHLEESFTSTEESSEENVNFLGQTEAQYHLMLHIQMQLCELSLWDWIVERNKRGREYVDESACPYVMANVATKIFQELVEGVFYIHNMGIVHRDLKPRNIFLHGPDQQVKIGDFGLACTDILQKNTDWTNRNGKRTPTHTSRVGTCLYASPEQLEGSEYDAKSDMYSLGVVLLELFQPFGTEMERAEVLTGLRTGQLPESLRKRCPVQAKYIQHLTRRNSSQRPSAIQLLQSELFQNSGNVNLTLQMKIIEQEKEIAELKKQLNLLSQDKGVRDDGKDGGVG
T11 sequence (Q96QT4 whole entry): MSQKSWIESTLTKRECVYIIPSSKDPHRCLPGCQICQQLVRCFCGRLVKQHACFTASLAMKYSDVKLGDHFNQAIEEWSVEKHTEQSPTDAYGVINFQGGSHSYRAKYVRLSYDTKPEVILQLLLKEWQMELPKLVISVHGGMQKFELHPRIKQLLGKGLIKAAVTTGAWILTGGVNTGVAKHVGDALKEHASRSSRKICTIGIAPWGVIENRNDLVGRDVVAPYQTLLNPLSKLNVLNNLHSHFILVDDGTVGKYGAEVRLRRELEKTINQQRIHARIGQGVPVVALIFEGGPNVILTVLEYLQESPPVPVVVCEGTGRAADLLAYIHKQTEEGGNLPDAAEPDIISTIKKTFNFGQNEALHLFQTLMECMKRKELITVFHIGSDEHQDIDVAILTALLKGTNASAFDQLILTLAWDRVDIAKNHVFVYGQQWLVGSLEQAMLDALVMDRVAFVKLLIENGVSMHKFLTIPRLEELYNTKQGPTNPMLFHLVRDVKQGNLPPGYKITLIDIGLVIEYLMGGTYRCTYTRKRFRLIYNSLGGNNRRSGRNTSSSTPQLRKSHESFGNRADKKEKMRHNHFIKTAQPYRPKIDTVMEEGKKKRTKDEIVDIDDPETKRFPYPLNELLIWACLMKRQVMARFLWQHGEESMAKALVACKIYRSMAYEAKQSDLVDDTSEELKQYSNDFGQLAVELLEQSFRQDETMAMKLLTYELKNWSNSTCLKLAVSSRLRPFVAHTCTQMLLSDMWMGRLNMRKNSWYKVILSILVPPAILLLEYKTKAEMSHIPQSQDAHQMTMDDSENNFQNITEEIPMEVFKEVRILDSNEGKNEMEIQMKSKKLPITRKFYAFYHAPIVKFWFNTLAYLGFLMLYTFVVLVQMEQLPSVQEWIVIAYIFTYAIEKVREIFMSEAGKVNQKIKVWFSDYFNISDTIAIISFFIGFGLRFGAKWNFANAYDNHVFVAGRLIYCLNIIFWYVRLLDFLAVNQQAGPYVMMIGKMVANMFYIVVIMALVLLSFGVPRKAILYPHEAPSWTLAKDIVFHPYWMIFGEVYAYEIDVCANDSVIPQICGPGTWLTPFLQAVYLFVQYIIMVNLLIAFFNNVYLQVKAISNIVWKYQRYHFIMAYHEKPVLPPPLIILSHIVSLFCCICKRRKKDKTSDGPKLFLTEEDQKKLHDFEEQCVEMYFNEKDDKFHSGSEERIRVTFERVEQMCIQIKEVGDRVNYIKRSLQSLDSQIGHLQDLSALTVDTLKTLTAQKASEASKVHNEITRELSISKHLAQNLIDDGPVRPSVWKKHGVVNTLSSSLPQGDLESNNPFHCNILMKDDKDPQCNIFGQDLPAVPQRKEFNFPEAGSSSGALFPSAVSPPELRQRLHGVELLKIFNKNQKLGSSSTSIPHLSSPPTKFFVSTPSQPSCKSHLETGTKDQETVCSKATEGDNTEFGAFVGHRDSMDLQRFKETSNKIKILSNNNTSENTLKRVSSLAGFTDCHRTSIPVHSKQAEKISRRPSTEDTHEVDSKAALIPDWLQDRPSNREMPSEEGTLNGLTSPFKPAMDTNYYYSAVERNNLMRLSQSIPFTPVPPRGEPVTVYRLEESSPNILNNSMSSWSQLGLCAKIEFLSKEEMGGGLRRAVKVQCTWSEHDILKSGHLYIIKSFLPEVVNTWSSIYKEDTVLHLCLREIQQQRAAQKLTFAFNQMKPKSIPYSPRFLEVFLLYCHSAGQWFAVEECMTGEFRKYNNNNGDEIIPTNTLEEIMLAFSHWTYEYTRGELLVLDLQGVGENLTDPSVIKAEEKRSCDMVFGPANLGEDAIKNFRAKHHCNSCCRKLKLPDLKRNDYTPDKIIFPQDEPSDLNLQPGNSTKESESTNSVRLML
T9 sequence (Q15118 29-436): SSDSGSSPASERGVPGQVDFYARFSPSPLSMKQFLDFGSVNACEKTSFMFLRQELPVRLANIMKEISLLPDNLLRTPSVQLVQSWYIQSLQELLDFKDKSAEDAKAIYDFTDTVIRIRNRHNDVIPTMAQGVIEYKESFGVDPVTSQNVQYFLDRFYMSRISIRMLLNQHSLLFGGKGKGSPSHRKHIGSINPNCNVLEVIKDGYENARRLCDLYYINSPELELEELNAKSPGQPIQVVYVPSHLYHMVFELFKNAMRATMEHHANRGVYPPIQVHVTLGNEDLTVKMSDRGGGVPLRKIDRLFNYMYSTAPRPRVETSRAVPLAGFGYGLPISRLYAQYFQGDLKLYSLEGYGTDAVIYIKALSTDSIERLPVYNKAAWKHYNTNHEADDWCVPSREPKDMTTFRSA

O=C1C=CC2(C=C1)OCC(Cc1cc(C(F)(F)F)cc(C(F)(F)F)c1)C(=O)N2c1ccccc1 (racemic) [1c]
% Residual Activity at 30 μM (DAPK1): 45.4 ± 0.1% | % Residual Activity at 30 μM (ROCK1): 97 ± 2.9%

O=C1C=CC2(C=C1)OCC(Cc1cn(-c3cccc(Cl)c3)nn1)C(=O)N2c1ccccc1 (stereo not shown) [2d, 3-((1-(3-Chlorophenyl)-1H-1,2,3-triazol-4-yl)methyl)-5-phenyl-1-oxa-5-azaspiro[5.5]undeca-7,10-diene-4,9-dione]
% Enzyme Activity (relative to DMSO controls) (AMPK(A1/B2/G1) [1]): 107.43% | remaining activity at 30 µM (AMPK(A1/B2/G1) [2]): 110% | TNF-α level (TNF-α): concentration-dependent manner | % Enzyme Activity (relative to DMSO controls) (AMPK(A2/B1/G1) [3]): 47.50% | remaining activity at 30 µM (AMPK(A2/B1/G1) [4]): 50.8% | % Enzyme Activity (relative to DMSO controls) (RIPK5; [5]): 83.85% | remaining activity at 30 µM (RIPK5; [6]): 86.1% | remaining activity at 30 µM (RIPK5; [7]): 85 ± 1.6% | % Enzyme Activity (relative to DMSO controls) (DAPK2; [5]): 109.81% | remaining activity at 30 µM (DAPK2; [6]): 111% | remaining activity at 30 µM (DAPK2; [7]): 110.2 ± 0.6% | % Enzyme Activity (relative to DMSO controls) (PDK1/PDHK1): 85.01% | remaining activity at 30 µM (PDK1/PDHK1; [8]): 85.6% | % Enzyme Activity (relative to DMSO controls) (PDK4/PDHK4): 105.05% | remaining activity at 30 µM (PDK4/PDHK4; [8]): 111% | % Enzyme Activity (relative to DMSO controls) (TRPM7/CHAK1): 63.76% | remaining activity at 30 µM (TRPM7/CHAK1; [8]): 67.5% | % Enzyme Activity (relative to DMSO controls) (PDK2/PDHK2): 63.30% | remaining activity at 30 µM (PDK2/PDHK2; [8]): 64.3% | % Enzyme Activity (relative to DMSO controls) (EIF2AK1): 87.95% | remaining activity at 30 µM (EIF2AK1; [8]): 91.7% | % Enzyme Activity (relative to DMSO controls) (PDK3/PDHK3): 82.28% | remaining activity at 30 µM (PDK3/PDHK3; [8]): 85.9%
